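Five compound concentrations were applied to cells in 96-well plates for 48 hours; endpoints were derived by simple linear interpolation of the resulting dose-response curve. Abbreviation: GI50, concentration required for 50% inhibition of growth.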 The source made the active and inactive calls. Cut-off read from the data, not from the text of the source: active = GI50 up to about 1.1 µM and inactive = higher.

Data on 13 compounds can be found in ChEMBL document CHEMBL1201862, “PubChem BioAssay data set” (2004).

Holding throughout (experiment): growth of human tumour cells (NCI), 48 h
For assay [1], the system named is SK-MEL-2.
Assay [2] concerns UACC-257.
Assay [3] deals with M19-MEL.
The subject of assay [4] is RXF 393.
Assay [5] concerns A549.
In assay [6] the test system is UACC-62.
For assay [7], the system named is MOLT-4.
In assay [8] the test system is RPMI-8226.
Assay [9] relates to HCT-15.
The subject of assay [10] is LOX IMVI.
For assay [11], the system named is CCRF-CEM.
Assay [12] concerns EKVX.
The subject of assay [13] is HCT-116.
In assay [14] the test system is SF-539.
Assay [15] relates to SK-OV-3.
Assay [16] relates to SNB-75.

On to `O=C(NCCCCCCNC(=O)OCCSCCn1cc(C(=O)NC(=O)OCc2ccccc2)c(=O)[nH]c1=O)OCCSCCn1cc(C(=O)NC(=O)OCc2ccccc2)c(=O)[nH]c1=O`, for which the GI50 in assay [1] was > 100 µM (inactive); in assay [2] it was > 100 µM (inactive); in assay [3], > 100 µM (inactive); in assay [4] it was 45.5 µM (inactive); in assay [5], > 100 µM (inactive); in [6], > 100 µM (inactive). Besides, the GI50 is > 100 µM (inactive) in [7]; > 100 µM (inactive) in assay [8]; greater than 100 µM in assay [9]; > 100 µM (inactive) in assay [10]; > 100 µM (inactive) in assay [11]; > 100 µM (inactive) in assay [12].

Take `COc1ccc2nc3ccccc3c(NCCCCCCN(C)CCCl)c2c1`: the GI50 is 0.293 µM (active) in assay [1]; 1.41 µM (inactive) in assay [2]; 0.308 µM (active) in assay [3]; 0.367 µM (active) in [4]; 0.297 µM (active) in assay [5]; 0.0887 µM (active) in assay [13]. In addition, the GI50 in assay [6] is 0.307 µM (active); in assay [7], < 0.01 µM (active); in assay [14], 0.474 µM (active); in assay [15], 0.664 µM (active); in [8] it was 0.0728 µM (active); in assay [9] it was 0.221 µM. Besides, the GI50 in [10] was 0.162 µM (active); in assay [11] it was 0.0368 µM (active); in [16], 0.703 µM (active); in assay [12], 1.39 µM (inactive).

`COc1ccc2c(c1)Oc1cc(O)ccc1[C@H]2c1ccccc1C(=O)NC(C)c1ccccc1` (stereo partly drawn): the GI50 in assay [1] was 21.5 µM (inactive); in assay [2] it was 17.4 µM (inactive); in assay [3], 15.7 µM (inactive); in assay [4] it was 18.7 µM (inactive); in assay [5], 13.2 µM (inactive); in assay [13] it was 13.6 µM (inactive). Further, the GI50 in assay [6] was 12.1 µM (inactive); in assay [7], 9.73 µM (inactive); in assay [14] it was 16.1 µM (inactive); in [15], 21 µM (inactive); in assay [8], 4.66 µM (inactive); in assay [9], 14.6 µM. Moreover, the GI50 in [10] is 16.9 µM (inactive); in assay [11], 16 µM (inactive); in assay [16], 16.4 µM (inactive); in [12] it was 16.5 µM (inactive).

Consider `Cc1ccc(-n2nc(C(OC3OC(CO)C(O)C(O)C3O)C(O)CO)c3nc4cc(C)c(C)cc4nc32)cc1` (stereo not drawn), for which the GI50 was > 100 µM (inactive) in assay [2]; > 100 µM (inactive) in assay [3]; 36.2 µM (inactive) in [4]; > 100 µM (inactive) in [13]; > 100 µM (inactive) in [6]; > 100 µM (inactive) in [7]. For the same compound, the GI50 in assay [14] was > 100 µM (inactive); in [15] it was > 100 µM (inactive); in assay [8] it was > 100 µM (inactive); in [9], greater than 100 µM; in [10] it was > 100 µM (inactive); in [11], > 100 µM (inactive). Moreover, the GI50 is 34 µM (inactive) in assay [16] and > 100 µM (inactive) in assay [12].

With `Cc1ccc(Nc2nc3c(s2)C(=O)c2ccccc2C3=O)c(C)c1`, the GI50 in assay [1] was 13.7 µM (inactive); in [2], 8.13 µM (inactive); in assay [3], 2.37 µM (inactive); in assay [4], 15.6 µM (inactive); in [5] it was 16.6 µM (inactive); in [6], 13.8 µM (inactive). Moreover, the GI50 was 3.94 µM (inactive) in assay [7]; 17.5 µM (inactive) in assay [14]; 29.6 µM (inactive) in assay [15]; 12.1 µM (inactive) in assay [8]; 17.5 µM in [9]; 13.3 µM (inactive) in [10]. In addition, the values for the GI50 in [11], in assay [16] and in assay [12] were 4.13 µM (inactive), 15.8 µM (inactive) and 18.3 µM (inactive), respectively.

As to `O=C(O)CCC(=O)Oc1ccc(O)c2c1CCCC2=O`, the GI50 in assay [1], in assay [2], in assay [3], in assay [4], in assay [5] and in assay [13] was > 100 µM (inactive) throughout. Besides, the GI50 in assay [6] is 69.7 µM (inactive); in [7], > 100 µM (inactive); in assay [14], > 100 µM (inactive); in [15] it was > 100 µM (inactive); in assay [8], 95.5 µM (inactive); in assay [9], greater than 100 µM. Further, the GI50 was > 100 µM (inactive) in [10], > 100 µM (inactive) in assay [11], 55.7 µM (inactive) in assay [16] and 58.5 µM (inactive) in assay [12].

For `CCOC(=O)C1CC(=O)C=C2CCCCC21` (stereo not drawn), the GI50 in [1], in assay [2], in assay [3], in assay [4], in assay [5] and in [13] was > 100 µM (inactive) in each case. Moreover, the GI50 in [6] was > 100 µM (inactive); in assay [7], > 100 µM (inactive); in [14], > 100 µM (inactive); in [15], > 100 µM (inactive); in assay [8], > 100 µM (inactive); in assay [9] it was greater than 100 µM. Besides, the GI50 in assay [10] was > 100 µM (inactive); in [11] it was > 100 µM (inactive); in [16] it was 99.3 µM (inactive); in [12], > 100 µM (inactive).

With `CC(=O)O[C@H]1[C@@H]2[C@@H]3[C@@H](C[C@H]1C)[C@@H](C)CO[C@@]1(C)CC/C=C(/C)C[C@@H]2O[C@@H]31`, the GI50 in assay [1], in assay [2], in assay [3], in assay [4], in assay [5] and in assay [13] was > 100 µM (inactive) each time. Further, the GI50 in assay [6] was > 100 µM (inactive); in assay [7], > 100 µM (inactive); in assay [14], > 100 µM (inactive); in [15], > 100 µM (inactive); in assay [8], > 100 µM (inactive); in assay [9], greater than 100 µM. The GI50 in assay [10], in [11], in assay [16] and in assay [12] was > 100 µM (inactive) in each case.

Consider `COc1ccc2nc(-c3ccc(O)cc3)ccc2c1`, for which the GI50 in assay [2], in assay [3], in assay [4], in assay [5], in assay [13] and in [6] was > 100 µM (inactive) each time. Moreover, the GI50 is > 100 µM (inactive) in assay [7]; > 100 µM (inactive) in [14]; > 100 µM (inactive) in assay [15]; > 100 µM (inactive) in assay [8]; > 100 µM (inactive) in [10]; 2.16 µM (inactive) in [11]. The GI50 in [16] was 59.7 µM (inactive); in assay [12] it was 95.5 µM (inactive).

With `CC[C@@H]1OC2(C)CC(S(=O)(=O)c3ccccc3O)CC1O2` (stereo partly drawn), the GI50 in assay [1], in assay [2], in assay [3], in assay [4], in assay [5] and in [13] was > 100 µM (inactive) each time. Also, the GI50 in assay [6] was > 100 µM (inactive); in [7], > 100 µM (inactive); in assay [14] it was > 100 µM (inactive); in assay [15], > 100 µM (inactive); in assay [8], > 100 µM (inactive); in assay [9], greater than 100 µM. The GI50 in [11], in [16] and in assay [12] was > 100 µM (inactive) throughout.

On to `N#CC(C#N)=C1NC(=O)C(c2ccccc2)C(=O)N1` (stereo not drawn), for which the GI50 in assay [2], in assay [3], in [4], in assay [5], in assay [13] and in assay [6] was > 100 µM (inactive) throughout. Moreover, the GI50 in assay [7] was > 100 µM (inactive); in assay [14], > 100 µM (inactive); in assay [15], > 100 µM (inactive); in [8], > 100 µM (inactive); in [9], greater than 100 µM; in assay [10], > 100 µM (inactive). Moreover, the GI50 in assay [11], in [16] and in assay [12] was > 100 µM (inactive) each time.

Take `COCCOCOC(C)(C)[C@H](CCOC(C)=O)O[Si](c1ccccc1)(c1ccccc1)C(C)(C)C`: the GI50 in assay [1] was 18.6 µM (inactive); in [2], 7.19 µM (inactive); in assay [3], 13.1 µM (inactive); in [4], 16 µM (inactive); in assay [5], 21.1 µM (inactive); in assay [13], 5.93 µM (inactive). Besides, the GI50 in [6] is 15.7 µM (inactive); in assay [7], 3.75 µM (inactive); in assay [15] it was 35.4 µM (inactive); in assay [8] it was 3.96 µM (inactive); in [9], 20.3 µM; in assay [10], 14.1 µM (inactive). The figures for the GI50 in assay [11], in assay [16] and in assay [12] were 4.97 µM (inactive), 38.7 µM (inactive) and 27.2 µM (inactive), respectively.

On to `C[C@]12CCC(=O)C=C1CC[C@@H]1[C@@H]2C(=O)C[C@@]2(C)[C@H]1CC[C@]2(O)C(=O)CO` [CORTISONE], for which the GI50 in assay [1], in [3], in assay [4], in [5], in assay [13] and in assay [7] was > 100 µM (inactive) each time. The GI50 was > 100 µM (inactive) in assay [14]; > 100 µM (inactive) in [15]; > 100 µM (inactive) in assay [8]; greater than 100 µM in assay [9]; > 100 µM (inactive) in [11]; > 100 µM (inactive) in assay [16]. For the same compound, the GI50 in [12] was > 100 µM (inactive).
